Where a SMILES comes first, the peptide text is derived from it.
molecular target: T1, rh integrin α4β7 (Homo sapiens, UniProt P13612+P26010); experiment: α4β7-MAdCAM Competition ELISA; format: binding; conditions: thioether monomer peptides, Table 6; read-out: ELISA A4B7
T1 construct: purchased R&D Systems 5397-A30
T1 sequence (P13612 34-977 limits assumed): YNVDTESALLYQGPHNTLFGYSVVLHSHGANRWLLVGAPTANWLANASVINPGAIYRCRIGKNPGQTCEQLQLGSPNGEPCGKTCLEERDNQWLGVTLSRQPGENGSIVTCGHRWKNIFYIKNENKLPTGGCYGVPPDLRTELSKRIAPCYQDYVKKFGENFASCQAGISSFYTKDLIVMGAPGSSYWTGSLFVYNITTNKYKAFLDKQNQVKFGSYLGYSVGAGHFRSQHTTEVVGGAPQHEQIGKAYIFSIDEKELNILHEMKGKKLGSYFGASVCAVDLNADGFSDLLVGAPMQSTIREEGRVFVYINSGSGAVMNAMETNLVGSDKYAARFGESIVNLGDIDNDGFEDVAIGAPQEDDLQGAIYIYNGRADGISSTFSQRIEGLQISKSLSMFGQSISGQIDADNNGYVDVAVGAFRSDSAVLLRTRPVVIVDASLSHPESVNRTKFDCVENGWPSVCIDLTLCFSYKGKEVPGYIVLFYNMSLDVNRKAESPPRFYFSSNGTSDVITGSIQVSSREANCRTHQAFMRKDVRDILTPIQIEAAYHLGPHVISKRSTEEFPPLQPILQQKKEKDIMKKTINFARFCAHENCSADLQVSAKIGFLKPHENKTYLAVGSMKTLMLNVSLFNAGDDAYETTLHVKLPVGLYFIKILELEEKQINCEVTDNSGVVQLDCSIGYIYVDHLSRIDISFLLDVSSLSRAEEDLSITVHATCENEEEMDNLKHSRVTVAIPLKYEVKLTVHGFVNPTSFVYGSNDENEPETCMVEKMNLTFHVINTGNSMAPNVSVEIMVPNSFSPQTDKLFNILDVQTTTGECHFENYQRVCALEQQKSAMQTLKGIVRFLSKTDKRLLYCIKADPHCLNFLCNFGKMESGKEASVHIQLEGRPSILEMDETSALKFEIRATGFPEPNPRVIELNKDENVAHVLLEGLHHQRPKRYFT
T1 sequence (P26010 20-723 limits assumed): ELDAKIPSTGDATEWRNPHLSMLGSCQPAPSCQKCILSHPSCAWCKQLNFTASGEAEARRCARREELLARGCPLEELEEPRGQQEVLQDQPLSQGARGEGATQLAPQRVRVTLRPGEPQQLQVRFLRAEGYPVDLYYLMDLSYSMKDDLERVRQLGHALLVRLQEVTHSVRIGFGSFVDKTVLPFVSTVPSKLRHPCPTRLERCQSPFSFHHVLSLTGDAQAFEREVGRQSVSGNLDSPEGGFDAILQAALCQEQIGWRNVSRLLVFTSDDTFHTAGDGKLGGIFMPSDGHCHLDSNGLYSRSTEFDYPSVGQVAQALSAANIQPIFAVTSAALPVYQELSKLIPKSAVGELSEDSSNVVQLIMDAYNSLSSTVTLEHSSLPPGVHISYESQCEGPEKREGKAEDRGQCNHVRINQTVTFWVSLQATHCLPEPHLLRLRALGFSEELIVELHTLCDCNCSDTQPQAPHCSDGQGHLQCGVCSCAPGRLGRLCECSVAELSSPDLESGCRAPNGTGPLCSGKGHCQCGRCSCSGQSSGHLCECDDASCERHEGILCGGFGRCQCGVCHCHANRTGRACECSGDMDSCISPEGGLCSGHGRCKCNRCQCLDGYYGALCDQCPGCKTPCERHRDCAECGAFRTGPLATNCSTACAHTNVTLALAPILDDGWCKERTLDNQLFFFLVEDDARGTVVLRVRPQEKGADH
Experimental: α4β7-MAdCAM Competition ELISA A nickel coated plate (Pierce #15442) was coated with rh integrin α4β[…] Systems #5397-A30) at 800 ng/well and incubated at room temperature with shaking for 1 hr. The solution was then removed by shaking and blocked with assay buffer (50 mM Tris-HCl pH7.6, 150 mM NaCl, 1 mM MnCl2 or MgCl2, 0.05% Tween-20 and 0.5% BSA) at 250 ul/well. The plate was then incubated at room temperature for 1 hr. Each well was washed 3 times with wash buffer (50 mM Tris-HCl pH7.6, 100 mM NaCl, 1 mM MnCl2 or MgCl2, 0.05% Tween-20). To each well was added 25 ul of a serial dilution (3-fold dilutions in assay buffer) of peptides starting at 20 μM. 25 ul of recombinant human MAdCAM-1 (R&D Systems #6056-MC) was then added to each well at a fixed concentration 20 nM. The final starting peptide concentration was 10 μM, and the final MAdCAM-1 concentration was 10 nM. The plates were then incubated at room temperature for 1 hr to reach binding equilibrium. The wells were then washed three times with wash buffer. 50 ul of mouse anti-human IgG1-HRP (Invitrogen #A10648) diluted in 1:2000 in assay buffer was then added to each well. The wells were incubated at room temperature for 45 min with shaking. The wells were then washed 3 times with wash buffer. 100 ul of TMB were then added to each well and closely observe during development time. The reaction was stopped with 2N H2SO4 and absorbance was read at 450 nm.

SMILES	IC50 [nM]
CC(C)C[C@@H]1NC(=O)[C@H]([C@@H](C)O)NC(=O)[C@H](CC(=O)O)NC(=O)[C@H](CO)NC(=O)[C@H](CCCNC(=N)N)N(C)C(=O)C(C)SC(C)(C)[C@@H](C(=O)N[C@@H](Cc2c[nH]c3ccccc23)C(=O)N[C@H](CCCCN)C(N)=O)NC1=O (single isomer, unassigned) [compound 54]	> 1000
CC(C)C[C@@H]1NC(=O)[C@H]([C@@H](C)O)NC(=O)[C@H](CC(=O)O)NC(=O)[C@H](CO)NC(=O)[C@H](CCCNC(=N)N)N(C)C(=O)C(C)(C)SC[C@@H](C(=O)N[C@@H](Cc2c[nH]c3ccccc23)C(=O)N[C@H](CCCCN)C(N)=O)NC1=O [compound 52]	> 1000
CC(C)C[C@@H]1NC(=O)[C@H]([C@@H](C)O)NC(=O)[C@H](CC(=O)O)NC(=O)[C@H](CO)NC(=O)[C@H](CCCNC(=N)N)N(C)C(=O)c2ccccc2CSC(C)(C)[C@@H](C(=O)N[C@@H](Cc2ccc(O)cc2)C(=O)N[C@H](CCC(=O)O)C(=O)N[C@H](CCCCN)C(N)=O)NC1=O [compound 79] (HELM PEPTIDE1{[meR].S.D.T.L.[Pen].Y.[dE].[dK].[am]}|CHEM1{[O=C(c1ccccc1C[*:2])[*:1]]}$PEPTIDE1,CHEM1,1:R1-1:R1|PEPTIDE1,CHEM1,6:R3-1:R2$$$V2.0)	< 25
CC(=O)NCCCC[C@@H](NC(=O)C[C@H](CCC(=O)O)NC(=O)[C@H](Cc1c[nH]c2ccccc12)NC(=O)[C@H]1NC(=O)[C@H](CC(C)C)NC(=O)[C@H]([C@@H](C)O)NC(=O)[C@H](CC(=O)O)NC(=O)[C@H](CO)NC(=O)[C@H](CCCNC(=N)N)N(C)C(=O)c2ccccc2CSC1(C)C)C(N)=O [compound 83] (HELM PEPTIDE1{[meR].S.D.T.L.[Pen].W.[O=C(O)CC[C@@H](CC(=O)[*:2])N[*:1]].[dK].[am]}|PEPTIDE2{[ac]}|CHEM1{[O=C(c1ccccc1C[*:2])[*:1]]}$PEPTIDE1,PEPTIDE2,9:R3-1:R2|PEPTIDE1,CHEM1,1:R1-1:R1|PEPTIDE1,CHEM1,6:R3-1:R2$$$V2.0)	< 25
CC(=O)NCCCC[C@H](C(N)=O)N(C)C(=O)[C@H](CCC(=O)O)NC(=O)[C@H](Cc1c[nH]c2ccccc12)NC(=O)[C@H]1NC(=O)[C@H](CC(C)C)NC(=O)[C@H]([C@@H](C)O)NC(=O)[C@H](CC(=O)O)NC(=O)[C@H](CO)NC(=O)[C@H](CCCNC(=N)N)N(C)C(=O)c2ccccc2CSC1(C)C [compound 84] (HELM PEPTIDE1{[meR].S.D.T.L.[Pen].W.E.[CN([C@H](CCCCN[*:3])C(=O)[*:2])[*:1]].[am]}|PEPTIDE2{[ac]}|CHEM1{[O=C(c1ccccc1C[*:2])[*:1]]}$PEPTIDE1,PEPTIDE2,9:R3-1:R2|PEPTIDE1,CHEM1,1:R1-1:R1|PEPTIDE1,CHEM1,6:R3-1:R2$$$V2.0)	< 25
CC(=O)NCCCC[C@@H](C(N)=O)N(C)C(=O)[C@H](Cc1ccc(O)cc1)NC(=O)[C@H](Cc1c[nH]c2ccccc12)NC(=O)[C@H]1NC(=O)[C@H](CC(C)C)NC(=O)[C@H]([C@@H](C)O)NC(=O)[C@H](CC(=O)O)NC(=O)[C@H](CO)NC(=O)[C@H](CCCNC(=N)N)N(C)C(=O)c2ccccc2CSC1(C)C [compound 85] (HELM PEPTIDE1{[meR].S.D.T.L.[Pen].W.Y.[CN([C@@H](CCCCN[*:3])C(=O)[*:2])[*:1]].[am]}|PEPTIDE2{[ac]}|CHEM1{[O=C(c1ccccc1C[*:2])[*:1]]}$PEPTIDE1,PEPTIDE2,9:R3-1:R2|PEPTIDE1,CHEM1,1:R1-1:R1|PEPTIDE1,CHEM1,6:R3-1:R2$$$V2.0)	< 25
CCCC[C@@H]1NC(=O)[C@H]([C@@H](C)O)NC(=O)[C@H](CC(=O)O)NC(=O)[C@H](CO)NC(=O)[C@H](CCCNC(=N)N)N(C)C(=O)c2ccccc2CSC(C)(C)[C@@H](C(=O)N[C@@H](Cc2c[nH]c3ccccc23)C(=O)N[C@@H](CCC(=O)O)C(=O)N[C@H](CCCCNC(C)=O)C(N)=O)NC1=O [compound 86] (HELM PEPTIDE1{[meR].S.D.T.[Nle].[Pen].W.E.[dK].[am]}|PEPTIDE2{[ac]}|CHEM1{[O=C(c1ccccc1C[*:2])[*:1]]}$PEPTIDE1,PEPTIDE2,9:R3-1:R2|PEPTIDE1,CHEM1,1:R1-1:R1|PEPTIDE1,CHEM1,6:R3-1:R2$$$V2.0)	< 25
